Measured values as given in patent publication US6525001B1, “Substituted pyrimidine and pyridine herbicides” (Mid-American Commercialization Corporation, priority 1997, dated 2003).

How the values were obtained:
Type in all cases: in vivo
[1] = system: fall panicum (Panicum dichotomiflorum); assay: Test C; design: key: 0 was no effect; 100 was complete control; settings: PREEMERGENCE
[2] = system: large crabgrass (Digitaria sanguinalis); assay: Test C; design: key: 0 was no effect; 100 was complete control; settings: PREEMERGENCE
[3] = system: wild poinsettia (Euphorbia heterophylla); assay: Test C; settings: PREEMERGENCE
[4] = system: barnyardgrass (Echinochloa crus-galli); assay: Test C; design: key: 0 was no effect; 100 was complete control; settings: PREEMERGENCE
[5] = system: arrowleaf sida (Sida rhombifolia); assay: Test C; design: key: 0 was no effect; 100 was complete control; settings: PREEMERGENCE
[6] = system: redroot pigweed (Amaranthus retroflexus); assay: Test C; design: key: 0 was no effect; 100 was complete control; settings: PREEMERGENCE
[7] = system: lambsquarters (Chenopodium album); assay: Test C; design: key: 0 was no effect; 100 was complete control; settings: PREEMERGENCE
[8] = system: purple nutsedge (Cyperus rotundus); assay: Test E pre-/postemergence/post directed; design: key: 0 is no injury; 100 is complete control
From the text: (§1) Seeds, tubers, or plant parts of alexandergrass (Brachiaria plantaginea), annual bluegrass (Poa annua), arrowleaf sida (Sida rhombifolia), barnyardgrass (Echinochloa crus-galli), bermudagrass (Cynodon dactylon), citrus (Citrus sinensis), common chickweed (Stellaria media), common purslane (Portulaca oleracea), common ragweed (Ambrosia elatior), common groundsel (Senecio vulgaris), dallisgrass (Paspalum dilatatum), goosegrass (Eleusine indica), green foxtail (Setaria viridis), guineagrass (Panicum maximum), itchgrass (Rottboellia exaltata), johnson grass (Sorghum halepense), kochia (Kochia scoparia), large crabgrass (Digitaria sanguinalis), leafy spurge (Euphorbia esula), pitted morningglory (Ipomoea lacunosa), purple nutsedge (Cyperus rotundus), quackgrass (Agropyron repens), Russian thistle (Salsola kali), sandbur (Cenchrus echinatus), sourgrass (Trichachne insularis), Spanishneedles (Bidens bipinnata), sugarcane (Saccharum officinarum), surinam grass (Brachiaria decumbens) and tall mallow (Malva sylvestris) were planted into greenhouse pots of flats containing greenhouse planting medium. Plant species were grown grown in separate pots or individual compartments. Preemergence applications were made within one day of planting the seed or plant part. Postemergence applications were applied when the plants were in the two to four leaf stage (three to twenty cm).
(§2) Test chemicals were formulated in a non-phytotoxic solvent mixture which included a surfactant and applied preemergence to the soil surface, postemergence to the plants or as a post directed spray to plants and soil at the base of the target species. Untreated control plants and treated plants were placed in the greenhouse and visually evaluated for injury 13 to 21 days after herbicide application. Plant response ratings, summarized in Table E, are based on a 0 to 100 scale where 0 is no injury and 100 is complete control. A dash (−) response means no test result.

[9] = system: eastern black nightshade (Solanum ptycanthum); assay: Test C; design: key: 0 was no effect; 100 was complete control; settings: PREEMERGENCE
[10] = system: ivyleaf morningglory (Ipomoea hederacea); assay: Test C; settings: PREEMERGENCE
[11] = system: alexandergrass (Brachiaria plantaginea); assay: Test E pre-/postemergence/post directed
From the text: as §1, §2

[12] = system: Spanishneedles (Bidens bipinnata); assay: Test E pre-/postemergence/post directed
From the text: as §1, §2

[13] = system: bermudagrass (Cynodon dactylon); assay: Test E pre-/postemergence/post directed
From the text: as §1, §2

[14] = system: pitted morningglory (Ipomoea lacunosa); assay: Test E pre-/postemergence/post directed
From the text: as §1, §2

[15] = system: itchgrass (Rottboellia exaltata); assay: Test E pre-/postemergence/post directed
From the text: as §1, §2

[16] = system: large crabgrass (Digitaria sanguinalis); assay: Test E pre-/postemergence/post directed
From the text: as §1, §2

[17] = system: johnson grass (Sorghum halepense); assay: Test E pre-/postemergence/post directed
From the text: as §1, §2

[18] = system: common groundsel (Senecio vulgaris); assay: Test E pre-/postemergence/post directed; settings: POSTEMERGENCE, Rate 250 g/ha
From the text: as §1, §2

[19] = system: sandbur (Cenchrus echinatus); assay: Test E pre-/postemergence/post directed
From the text: as §1, §2

[20] = system: common ragweed (Ambrosia elatior); assay: Test E pre-/postemergence/post directed
From the text: as §1, §2

Which “Plant response rating, Fall panicum” value ([1]; Rate 35 g/ha) does the source give for `COc1cnc(-c2ccc(C(F)(F)F)cc2)nc1Cc1cccc(C(F)(F)F)c1` [Compound 23] here?
The value was 55.

And the “Plant response rating, Fall panicum” value ([1]; Rate 70 g/ha)?
Its value is 100.

What about the “Plant response rating, Fall panicum” value ([1]; Rate 140 g/ha) of the same molecule?
The value was 100.

And the “Plant response rating, Large crabgrass” value ([2]; Rate 35 g/ha)?
The value was 100.

What about the “Plant response rating, Large crabgrass” value ([2]; Rate 70 g/ha) of the same molecule?
The value was 100.

And the “Plant response rating, Large crabgrass” value ([2]; Rate 140 g/ha)?
Its value is 100.

What about the “Plant response rating, Wild poinsettia” value ([3]; Rate 35 g/ha) of the same molecule?
The value was 5.

And the “Plant response rating, Wild poinsettia” value ([3]; Rate 70 g/ha)?
The value was 5.

And the “Plant response rating, Wild poinsettia” value ([3]; Rate 140 g/ha)?
The value was 10.

And the “Plant response rating, Barnyardgrass” value ([4]; Rate 35 g/ha)?
Its value is 0.

And the “Plant response rating, Barnyardgrass” value ([4]; Rate 70 g/ha)?
The value was 5.

And the “Plant response rating, Barnyardgrass” value ([4]; Rate 140 g/ha)?
Its value is 10.

And the “Plant response rating, Arrowleaf sida” value ([5]; Rate 35 g/ha)?
The value was 80.

What about the “Plant response rating, Arrowleaf sida” value ([5]; Rate 70 g/ha) of the same molecule?
Its value is 100.

What about the “Plant response rating, Arrowleaf sida” value ([5]; Rate 140 g/ha) of the same molecule?
The value was 100.

And the “Plant response rating, Redroot pigweed” value ([6]; Rate 35 g/ha)?
The value was 100.

And the “Plant response rating, Redroot pigweed” value ([6]; Rate 70 g/ha)?
The value was 100.

What about the “Plant response rating, Redroot pigweed” value ([6]; Rate 140 g/ha) of the same molecule?
The value was 100.

And the “Plant response rating, Lambsquarters” value ([7]; Rate 35 g/ha)?
Its value is 60.

What about the “Plant response rating, Lambsquarters” value ([7]; Rate 70 g/ha) of the same molecule?
The value was 100.

And the “Plant response rating, Lambsquarters” value ([7]; Rate 140 g/ha)?
The value was 100.

And the “Plant response rating, Purple nutsedge” value ([8]; POSTEMERGENCE, Rate 250 g/ha)?
The value was 0.

And the “Plant response rating, Purple nutsedge” value ([8]; PREEMERGENCE, Rate 32 g/ha)?
Its value is 0.

And the “Plant response rating, Purple nutsedge” value ([8]; PREEMERGENCE, Rate 64 g/ha)?
Its value is 0.

What about the “Plant response rating, Purple nutsedge” value ([8]; PREEMERGENCE, Rate 125 g/ha) of the same molecule?
Its value is 0.

What about the “Plant response rating, Purple nutsedge” value ([8]; PREEMERGENCE, Rate 250 g/ha) of the same molecule?
Its value is 0.

What about the “Plant response rating, E. blacknightsh” value ([9]; Rate 35 g/ha) of the same molecule?
The value was 95.

What about the “Plant response rating, E. blacknightsh” value ([9]; Rate 70 g/ha) of the same molecule?
The value was 100.

And the “Plant response rating, E. blacknightsh” value ([9]; Rate 140 g/ha)?
Its value is 100.

And the “Plant response rating, I. morningglory” value ([10]; Rate 35 g/ha)?
Its value is 5.

What about the “Plant response rating, I. morningglory” value ([10]; Rate 140 g/ha) of the same molecule?
The value was 40.

And the “Plant response rating, Alexandergrass” value ([11]; POSTEMERGENCE, Rate 250 g/ha)?
The value was 80.

What about the “Plant response rating, Alexandergrass” value ([11]; PREEMERGENCE, Rate 125 g/ha) of the same molecule?
Its value is 85.

And the “Plant response rating, Alexandergrass” value ([11]; PREEMERGENCE, Rate 250 g/ha)?
Its value is 98.

What about the “Plant response rating, Spanishneedles” value ([12]; POSTEMERGENCE, Rate 250 g/ha) of the same molecule?
The value was 10.

And the “Plant response rating, Spanishneedles” value ([12]; PREEMERGENCE, Rate 32 g/ha)?
Its value is 60.

What about the “Plant response rating, Spanishneedles” value ([12]; PREEMERGENCE, Rate 64 g/ha) of the same molecule?
The value was 70.

What about the “Plant response rating, Bermudagrass” value ([13]; POSTEMERGENCE, Rate 250 g/ha) of the same molecule?
Its value is 10.

And the “Plant response rating, Bermudagrass” value ([13]; PREEMERGENCE, Rate 32 g/ha)?
The value was 90.

What about the “Plant response rating, Bermudagrass” value ([13]; PREEMERGENCE, Rate 64 g/ha) of the same molecule?
The value was 98.

What about the “Plant response rating, Bermudagrass” value ([13]; PREEMERGENCE, Rate 125 g/ha) of the same molecule?
The value was 98.

What about the “Plant response rating, Bermudagrass” value ([13]; PREEMERGENCE, Rate 250 g/ha) of the same molecule?
Its value is 98.

And the “Plant response rating, P. morninglory” value ([14]; POSTEMERGENCE, Rate 250 g/ha)?
The value was 40.

What about the “Plant response rating, P. morninglory” value ([14]; PREEMERGENCE, Rate 125 g/ha) of the same molecule?
The value was 50.

What about the “Plant response rating, P. morninglory” value ([14]; PREEMERGENCE, Rate 250 g/ha) of the same molecule?
The value was 80.

What about the “Plant response rating, Itchgrass” value ([15]; POSTEMERGENCE, Rate 250 g/ha) of the same molecule?
Its value is 80.

And the “Plant response rating, Itchgrass” value ([15]; PREEMERGENCE, Rate 32 g/ha)?
Its value is 30.

What about the “Plant response rating, Itchgrass” value ([15]; PREEMERGENCE, Rate 64 g/ha) of the same molecule?
Its value is 60.

What about the “Plant response rating, Itchgrass” value ([15]; PREEMERGENCE, Rate 125 g/ha) of the same molecule?
The value was 70.

What about the “Plant response rating, Itchgrass” value ([15]; PREEMERGENCE, Rate 250 g/ha) of the same molecule?
The value was 70.

And the “Plant response rating, Large crabgrass” value ([16]; POSTEMERGENCE, Rate 250 g/ha)?
Its value is 40.

And the “Plant response rating, Large crabgrass” value ([16]; PREEMERGENCE, Rate 32 g/ha)?
The value was 98.

And the “Plant response rating, Large crabgrass” value ([16]; PREEMERGENCE, Rate 64 g/ha)?
Its value is 98.

And the “Plant response rating, Johnsongrass” value ([17]; POSTEMERGENCE, Rate 250 g/ha)?
Its value is 65.

And the “Plant response rating, Johnsongrass” value ([17]; PREEMERGENCE, Rate 32 g/ha)?
Its value is 70.

What about the “Plant response rating, Johnsongrass” value ([17]; PREEMERGENCE, Rate 64 g/ha) of the same molecule?
The value was 80.

And the “Plant response rating, Johnsongrass” value ([17]; PREEMERGENCE, Rate 125 g/ha)?
Its value is 80.

What about the “Plant response rating, Johnsongrass” value ([17]; PREEMERGENCE, Rate 250 g/ha) of the same molecule?
Its value is 90.

What about the “Plant response rating, Com. groundsel” value [18] of the same molecule?
The value was 40.

And the “Plant response rating, Sandbur” value ([19]; POSTEMERGENCE, Rate 250 g/ha)?
The value was 20.

And the “Plant response rating, Sandbur” value ([19]; PREEMERGENCE, Rate 32 g/ha)?
The value was 85.

And the “Plant response rating, Sandbur” value ([19]; PREEMERGENCE, Rate 64 g/ha)?
The value was 80.

And the “Plant response rating, Sandbur” value ([19]; PREEMERGENCE, Rate 125 g/ha)?
The value was 80.

And the “Plant response rating, Sandbur” value ([19]; PREEMERGENCE, Rate 250 g/ha)?
Its value is 98.

And the “Plant response rating, Com. ragweed” value ([20]; POSTEMERGENCE, Rate 250 g/ha)?
Its value is 40.

And the “Plant response rating, Com. ragweed” value ([20]; PREEMERGENCE, Rate 32 g/ha)?
The value was 50.

And the “Plant response rating, Com. ragweed” value ([20]; PREEMERGENCE, Rate 64 g/ha)?
Its value is 70.
